# Measured values as given in patent US7579334B2, “Compounds with anti-inflammatory activity” (GlaxoSmithKline Istrazivacki Centar Zagreb, priority 2003, dated 2009).
# Legend:
# [1] = biological target: T1, alpha isoform of human glucocorticoid receptor (Homo sapiens, UniProt P04150); experiment: Assay of binding to human glucocorticoid receptor ([3H]dexamethasone displacement in transfected COS-1 cells); settings: 24 nM [3H]dexamethazone, COS-1 cells transfected with human GR alpha, 90 minutes at 37° C.
# T1 construct: expressed in transfected cells; host or cells: COS-1 cells, transient transfection with pcDNA3.1 Hygro(+) carrying the GR alpha cDNA
# T1 sequence (P04150 1-777): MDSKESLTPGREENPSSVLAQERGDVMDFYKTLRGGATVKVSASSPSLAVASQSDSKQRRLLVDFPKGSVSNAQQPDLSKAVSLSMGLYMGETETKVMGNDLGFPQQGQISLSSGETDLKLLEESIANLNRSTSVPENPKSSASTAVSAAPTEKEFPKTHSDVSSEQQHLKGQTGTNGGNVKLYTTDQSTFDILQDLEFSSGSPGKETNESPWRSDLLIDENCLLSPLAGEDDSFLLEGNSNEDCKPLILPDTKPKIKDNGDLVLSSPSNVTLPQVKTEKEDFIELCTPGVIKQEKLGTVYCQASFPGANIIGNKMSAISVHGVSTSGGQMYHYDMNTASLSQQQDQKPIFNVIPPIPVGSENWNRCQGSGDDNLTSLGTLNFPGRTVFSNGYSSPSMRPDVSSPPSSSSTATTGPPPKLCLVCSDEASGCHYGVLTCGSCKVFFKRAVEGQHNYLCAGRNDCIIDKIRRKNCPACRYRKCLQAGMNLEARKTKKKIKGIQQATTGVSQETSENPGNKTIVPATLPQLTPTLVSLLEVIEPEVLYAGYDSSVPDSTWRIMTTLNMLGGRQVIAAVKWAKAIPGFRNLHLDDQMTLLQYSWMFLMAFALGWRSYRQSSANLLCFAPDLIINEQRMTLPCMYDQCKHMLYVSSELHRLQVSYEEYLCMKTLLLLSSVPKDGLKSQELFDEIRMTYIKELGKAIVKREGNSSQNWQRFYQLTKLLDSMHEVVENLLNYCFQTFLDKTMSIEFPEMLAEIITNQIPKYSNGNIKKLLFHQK
# Method: Assay of Binding to Human Glucocorticoid Receptor The gene for the alpha isoform of human glucocorticoid receptor was cloned by reverse polymerase chain reaction. The total RN A was isolated from human peripheral blood lymphocytes according to the instructions of the manufacturer (Qiagen), transcripted into cDNA with AMV reverse transcriptase (Roche) and the gene was multiplied by specific primers 1) [NT] ID NO:1] and 2) [NT] NO:1]. […] The medium was removed and 1 μg of DNA, 7 μl of PLUS reagent and 2 μl of Lipofectamin (Life Technologies) in 500 μl of DMEM were added per well. The cells were incubated at 37° C. in an atmosphere with 5% CO2 and after 5 hours the same volume of 20% FBS/DMEM was added. After 24 hours, the medium was completely changed. 48 hours after transfection, the test compounds in different concentrations and 24 nM [^3H]dexamethazone (Pharmacia) in DMEM medium were added. The cells were incubated for 90 minutes at 37° C. in an atmosphere with 5% CO2, washed three times with PBS buffer (Sigma) cooled to 4° C. (pH=7.4), and then lysed in Tris buffer (pH=8.0) (Sigma) with 0.2% of SDS (Sigma). After the addition of UltimaGold XR (Packard) scintillation liquid, the residual radioactivity was read in a Tricarb (Packard) β-scintillation counter.
# [2] = test system: Male Balb/C mice; experiment: Model of lung eosinophilia in mice; type: in vivo; settings: OVA-sensitised and challenged mice, daily i.n. or i.p.; t-test, p<0.05
# Method: Model of Lung Eosinophilia in Mice Male Balb/C mice with a body weight of 20-25 g were randomly divided into groups, and sensitised by an i.p. injection of ovalbumin (OVA, Sigma) on day zero and day fourteen. On the twentieth day, the mice were subjected to a challenge test by i.n. (intranasal) application of OVA (positive control or test groups) or PBS (negative control). 48 hours after i.n. application of OVA, the animals were anaesthetized and the lungs were rinsed with 1 mL of PBS. The cells were separated on Cytospin 3 cytocentrifuge (Shandon). The cells were stained in Diff-Quick (Dade) and the percentage of eosinophils was determined by differential counting of at least 100 cells. Fluticasone (GlaxoWellcome) and beclomethasone ([…].) were used as standard substances, with positive and negative control. The compounds were administered daily i.n. or i.p. in different doses 2 days before the challenge test and up to the completion of the test.
# [3] = test system: Male Wistar rats; experiment: Cold stress model; type: in vivo; settings: standard 1 mg/kg once daily over three days, cold stress at 4° C. for 1 hour; P<0.05, T-test
# Method: Male Wistar rats with a body weight of 200-250 g (our own breeding) were randomly divided into groups. The carrier (lactose) in the volume of 0.5 mL/100 g s.c. was applied to the negative and positive control group. Test substances and the standard were applied once daily over three days in the dose of 2 mg/kg in the volume of 0.5 mL/100 g of body weight. The standard was applied in the dose of 1 mg/kg, in the volume of 0.5 mL/100 g of body weight.
# On day three, 2 hours after the last treatment, all animals, except for the negative control group, were subjected to cold stress at 4° C. for 1 hour. After the stress, the animals were anaesthetized with thiopental (Pliva d.d.) and blood from all animals was drawn on K2 EDTA into test tubes. Plasma samples were frozen at −70° C. Corticosterone levels were determined by fluorimetric method according to Silber. Thymuses were removed from animals and weighed, and their weights were compared with the negative and positive control.
Structure (SMILES),affinity for glucocorticoid receptor (displacement of radioactive dexamethasone) [1],number of eosinophils in the lung rinse with respect to positive control [2],corticosterone plasma levels [3],weight of the thymus [3]
CC[C@H]1OC(=O)[C@H](C)[C@@H](O)[C@H](C)[C@@H](O)[C@](C)(O)C[C@@H](C)CN(CCCNC(=O)[C@H]2[C@H](C)CC3C4CCC5=CC(=O)C=C[C@]5(C)[C@@]4(F)[C@@H](O)C[C@@]32C)[C@H](C)[C@@H](O)[C@]1(C)O (stereo partly drawn) [Compound 2],have the affinity for glucocorticoid receptor,statistically significantly reduced,–,–
CCCC1O[C@@H]2C[C@H]3[C@@H]4CCC5=CC(=O)C=C[C@]5(C)[C@H]4[C@@H](O)C[C@]3(C)[C@]2(C(=O)CO)O1 (stereo partly drawn) [budesonide],–,–,statistically significantly reduced,reduced the weight of the thymus
C[C@@H]1C[C@H]2[C@@H]3C[C@H](F)C4=CC(=O)C=C[C@]4(C)[C@@]3(F)[C@@H](O)C[C@]2(C)[C@@]1(O)C(=O)SCF [fluticasone],–,–,statistically significantly reduced,reduced the weight of the thymus
